From patent publication US20250197406A1, “INDAZOLES AS HEMATOPOIETIC PROGENITOR KINASE 1 (HPK1) INHIBITORS AND METHODS FOR USING SAME” (1ST Biotherapeutics, Inc., priority 2022, published 2025) come the findings set out here.

Structures are written as SMILES. Counter-ions that a name gives are not always drawn.

recombinant human HPK1, sequence (Q92918 whole entry): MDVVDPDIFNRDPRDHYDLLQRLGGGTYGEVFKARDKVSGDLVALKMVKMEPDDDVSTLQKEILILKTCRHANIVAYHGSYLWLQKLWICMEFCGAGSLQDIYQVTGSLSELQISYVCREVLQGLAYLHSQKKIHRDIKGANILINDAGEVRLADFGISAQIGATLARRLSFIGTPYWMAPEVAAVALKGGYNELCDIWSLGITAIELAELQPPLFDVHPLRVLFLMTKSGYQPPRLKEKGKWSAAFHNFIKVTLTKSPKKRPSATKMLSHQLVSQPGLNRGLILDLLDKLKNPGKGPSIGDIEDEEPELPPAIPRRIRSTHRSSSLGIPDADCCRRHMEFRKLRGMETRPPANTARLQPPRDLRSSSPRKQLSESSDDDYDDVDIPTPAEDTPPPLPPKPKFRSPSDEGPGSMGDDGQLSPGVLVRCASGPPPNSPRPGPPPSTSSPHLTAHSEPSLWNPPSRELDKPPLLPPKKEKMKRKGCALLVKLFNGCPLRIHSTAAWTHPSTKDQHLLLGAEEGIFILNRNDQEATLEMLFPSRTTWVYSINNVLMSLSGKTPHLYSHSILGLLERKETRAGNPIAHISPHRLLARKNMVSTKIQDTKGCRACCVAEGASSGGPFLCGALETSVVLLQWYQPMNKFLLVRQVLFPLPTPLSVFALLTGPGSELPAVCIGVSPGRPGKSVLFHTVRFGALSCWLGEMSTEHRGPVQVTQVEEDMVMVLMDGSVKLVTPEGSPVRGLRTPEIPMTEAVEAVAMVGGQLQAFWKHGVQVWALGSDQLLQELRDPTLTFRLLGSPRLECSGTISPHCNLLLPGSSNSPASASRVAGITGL

This experiment has as its target recombinant human HPK1 (Homo sapiens (Human), UniProt Q92918). As to the kind of experiment: HPK1 kinase assay (Promega ADP-Glo kinase assay). It is filed as biochemical. As to conditions: In vitro activity against HPK1, 5 ng HPK1, MBP substrate, ATP 25 μM, 30° C. 40 minutes. The protocol: HPK1 kinase activity was measured by Promega's ADP-Glo™ kinase assay. In this assay, 5 ng of recombinant human HPK1 (signalchem) is incubated with 5 μL of compounds (0.5% DMSO), 5 μL of MBP (0.5 μg/μl) and 5 μL of ATP (25 μM) in buffer (40 mM Tris, 7.5; 20 mM MgCl2; 0.1 mg/ml BSA; 50 μM DTT.). The assay was started by incubating the reaction mixture in a 96-well plate at 30° C. for 40 minutes. After the incubation, 25 μL ADP-Glo reagent was added and the reaction was incubated at room temperature for 40-min to stop the reaction and degrade residual ATP. The ADP product was then converted to ATP by adding 50 μL per well of detection reagent. Luminescence was detected after 30-min room temperature incubation with the Molecular device I3X plate reader. The IC50 values were calculated from a series of percent inhibition values determined at a range of inhibitor concentration using software routines as implemented in the GraphPad Prism 7 software and SigmaPlot13.0.
(ADP-Glo turns the ADP formed in a reaction into a luminescent signal.)
A word on the IC50: it is the midpoint of a concentration-inhibition curve. In the case of `CC(C)Nc1c(F)c(Cl)c(-c2cn3cc(NC(=O)[C@@H]4C[C@@H]4C#N)nc3cn2)c2cn[nH]c12` [Example 51, (1R,2S)-N-(6-(5-chloro-6-fluoro-7-(isopropylamino)-1H-indazol-4-yl)imidazo[1,2-a]pyrazin-2-yl)-2-cyanocyclopropane-1-carboxamide], the half-maximal inhibitory concentration (IC50) was less than 100 nM.

As to `CC(=O)NC(C)c1c(F)c(C(F)F)c(-c2cn3cc(NC(=O)[C@@H]4C[C@@H]4F)nc3cn2)c2cn[nH]c12` (stereo partly drawn) [Example 53, (1S,2S)-N-(6-(7-(1-acetamidoethyl)-5-(difluoromethyl)-6-fluoro-1H-indazol-4-yl)imidazo[1,2-a]pyrazin-2-yl)-2-fluorocyclopropane-1-carboxamide], the IC50 was less than 100 nM.

Consider `CC(=O)NC(c1c(F)c(C(F)F)c(-c2cn3cc(NC(=O)[C@@H]4C[C@@H]4F)nc3cn2)c2cn[nH]c12)C1CC1` (stereo partly drawn) [Example 54, (1S,2S)-N-(6-(7-(acetamido(cyclopropyl)methyl)-5-(difluoromethyl)-6-fluoro-1H-indazol-4-yl)imidazo[1,2-a]pyrazin-2-yl)-2-fluorocyclopropane-1-carboxamide], for which the IC50 was less than 100 nM.

`CC(N)c1c(F)c(C(F)F)c(-c2cn3cc(NC(=O)[C@@H]4C[C@@H]4F)nc3cn2)c2cn[nH]c12` (stereo partly drawn) [Example 55, (1S,2S)-N-(6-(7-(1-aminoethyl)-5-(difluoromethyl)-6-fluoro-1H-indazol-4-yl)imidazo[1,2-a]pyrazin-2-yl)-2-fluorocyclopropane-1-carboxamide]: the half-inhibitory concentration (IC50) was in the range of 101 to 500 nM.

Consider `CC(=O)NC(c1c(F)c(C(F)(F)F)c(-c2cn3cc(NC(=O)[C@@H]4C[C@@H]4F)nc3cn2)c2cn[nH]c12)C1CC1` (stereo partly drawn) [Example 56, (1S,2S)-N-(6-(7-(acetamido(cyclopropyl)methyl)-6-fluoro-5-(trifluoromethyl)-1H-indazol-4-yl)imidazo[1,2-a]pyrazin-2-yl)-2-fluorocyclopropane-1-carboxamide formate], for which the 50% inhibitory concentration (IC50) is less than 100 nM.

Regarding `CC(C)Nc1c(F)c(Cl)c(-c2cn3cc(NC(=O)c4ccccc4)nc3cn2)c2cn[nH]c12` [Example 57, N-(6-(5-chloro-6-fluoro-7-(isopropylamino)-1H-indazol-4-yl)imidazo[1,2-a]pyrazin-2-yl)benzamide], the IC50 is less than 100 nM.

With `CC(C)Nc1c(F)c(Cl)c(-c2cn3cc(NC(=O)c4ccccn4)nc3cn2)c2cn[nH]c12` [Example 58, N-(6-(5-chloro-6-fluoro-7-(isopropylamino)-1H-indazol-4-yl)imidazo[1,2-a]pyrazin-2-yl)picolinamide], the IC50 lay in the range of 101 to 500 nM.

Turning to `COC(=O)c1c(F)c(NC(C)C)c2[nH]ncc2c1-c1cn2cc(NC(=O)[C@@H]3C[C@@H]3F)nc2cn1` [Example 59, methyl 6-fluoro-4-(2-((1S,2S)-2-fluorocyclopropane-1-carboxamido)imidazo[1,2-a]pyrazin-6-yl)-7-(isopropylamino)-1H-indazole-5-carboxylate], the half-inhibitory concentration (IC50) was less than 100 nM.

On to `CC(C)Nc1c(F)c(Cl)c(-c2cn3cc(NC(=O)C4CCC4)nc3cn2)c2cn[nH]c12` [Example 60, N-(6-(5-chloro-6-fluoro-7-(isopropylamino)-1H-indazol-4-yl)imidazo[1,2-a]pyrazin-2-yl)cyclobutanecarboxamide], for which the 50% inhibitory concentration (IC50) is less than 100 nM.

Regarding `CCC(=O)Nc1cn2cc(-c3c(Cl)c(F)c(NC(C)C)c4[nH]ncc34)ncc2n1` [Example 61, N-(6-(5-chloro-6-fluoro-7-(isopropylamino)-1H-indazol-4-yl)imidazo[1,2-a]pyrazin-2-yl)propionamide], the 50% inhibitory concentration (IC50) was less than 100 nM.

Consider `CC(C)Nc1c(F)c(Cl)c(-c2cn3cc(NC(=O)C(F)(F)F)nc3cn2)c2cn[nH]c12` [Example 66, N-(6-(5-chloro-6-fluoro-7-(isopropylamino)-1H-indazol-4-yl)imidazo[1,2-a]pyrazin-2-yl)-2,2,2-trifluoroacetamide], for which the IC50 is less than 100 nM.

Consider `Cc1c(F)c(C(NC(=O)C2CC2)C2CC2)c2[nH]ncc2c1-c1cn2cc(NC(=O)[C@@H]3C[C@@H]3F)nc2cn1` (stereo partly drawn) [Example 67, (1S,2S)-N-(6-(7-(cyclopropanecarboxamido(cyclopropyl)methyl)-6-fluoro-5-methyl-1H-indazol-4-yl)imidazo[1,2-a]pyrazin-2-yl)-2-fluorocyclopropane-1-carboxamide], for which the IC50 was less than 100 nM.

For `Cc1c(F)c(C(C)N2C(=O)c3ccccc3C2=O)c2[nH]ncc2c1-c1cn2cc(NC(=O)[C@@H]3C[C@@H]3F)nc2cn1` (stereo partly drawn) [Example 68, (1S,2S)-N-(6-(7-(1-(1,3-dioxoisoindolin-2-yl)ethyl)-6-fluoro-5-methyl-1H-indazol-4-yl)imidazo[1,2-a]pyrazin-2-yl)-2-fluorocyclopropane-1-carboxamide], the IC50 lay in the range of 101 to 500 nM.

Regarding `Cc1c(F)c(C(C)NC(=O)C2CC2)c2[nH]ncc2c1-c1cn2cc(NC(=O)[C@@H]3C[C@@H]3F)nc2cn1` (stereo partly drawn) [Example 69, (1S,2S)-N-(6-(7-(1-(cyclopropanecarboxamido)ethyl)-6-fluoro-5-methyl-1H-indazol-4-yl)imidazo[1,2-a]pyrazin-2-yl)-2-fluorocyclopropane-1-carboxamide], the IC50 was less than 100 nM.

Regarding `CC(=O)NC(C)c1c(F)c(C)c(-c2cn3cc(NC(=O)[C@@H]4C[C@@H]4F)nc3cn2)c2cn[nH]c12` (stereo partly drawn) [Example 70, (1S,2S)-N-(6-(7-(1-acetamidoethyl)-6-fluoro-5-methyl-1H-indazol-4-yl)imidazo[1,2-a]pyrazin-2-yl)-2-fluorocyclopropane-1-carboxamide], the IC50 is less than 100 nM.

Regarding `Cc1c(F)c(C(C)NC(=O)C(F)(F)F)c2[nH]ncc2c1-c1cn2cc(NC(=O)[C@@H]3C[C@@H]3F)nc2cn1` (stereo partly drawn) [Example 71, (1S,2S)-2-fluoro-N-(6-(6-fluoro-5-methyl-7-(1-(2,2,2-trifluoroacetamido)ethyl)-1H-indazol-4-yl)imidazo[1,2-a]pyrazin-2-yl)cyclopropane-1-carboxamide], the IC50 is less than 100 nM.

As to `N#Cc1c(F)cc2[nH]ncc2c1-c1cn2cc(NC(=O)[C@@H]3C[C@@H]3F)nc2cn1` [Example 72, (1S,2S)-N-(6-(5-cyano-6-fluoro-1H-indazol-4-yl)imidazo[1,2-a]pyrazin-2-yl)-2-fluorocyclopropane-1-carboxamide], the IC50 fell in the range of 501 to 1000 nM.

In the case of `CC(C)Nc1c(F)c(C(=O)O)c(-c2cn3cc(NC(=O)[C@@H]4C[C@@H]4F)nc3cn2)c2cn[nH]c12` [Example 73, 6-fluoro-4-(2-((1S,2S)-2-fluorocyclopropane-1-carboxamido)imidazo[1,2-a]pyrazin-6-yl)-7-(isopropylamino)-1H-indazole-5-carboxylic acid], the half-inhibitory concentration (IC50) was 501 to 1000 nM.

Take `CC(C)Nc1c(F)c(Cl)c(-c2cn3cc(NC(=O)C4CCNC4)nc3cn2)c2cn[nH]c12` (centres unmarked) [Example 74, N-(6-(5-chloro-6-fluoro-7-(isopropylamino)-1H-indazol-4-yl)imidazo[1,2-a]pyrazin-2-yl)pyrrolidine-3-carboxamide]: the IC50 is less than 100 nM.

Regarding `CC(NC=O)c1c(F)c(C(F)F)c(-c2cn3cc(NC(=O)[C@@H]4C[C@@H]4F)nc3cn2)c2cn[nH]c12` (stereo partly drawn) [Example 75, (1S,2S)-N-(6-(5-(difluoromethyl)-6-fluoro-7-(1-formamidoethyl)-1H-indazol-4-yl)imidazo[1,2-a]pyrazin-2-yl)-2-fluorocyclopropane-1-carboxamide], the IC50 is less than 100 nM.

Take `CC(NC(=O)C1CC1)c1c(F)c(C(F)F)c(-c2cn3cc(NC(=O)[C@@H]4C[C@@H]4F)nc3cn2)c2cn[nH]c12` (stereo partly drawn) [Example 76, (1S,2S)-N-(6-(7-(1-(cyclopropanecarboxamido)ethyl)-5-(difluoromethyl)-6-fluoro-1H-indazol-4-yl)imidazo[1,2-a]pyrazin-2-yl)-2-fluorocyclopropane-1-carboxamide]: the 50% inhibitory concentration (IC50) is less than 100 nM.

Regarding `O=C(NC(c1c(F)c(C(F)F)c(-c2cn3cc(NC(=O)[C@@H]4C[C@@H]4F)nc3cn2)c2cn[nH]c12)C1CC1)C1CC1` (stereo partly drawn) [Example 77, (1S,2S)-N-(6-(7-(cyclopropanecarboxamido(cyclopropyl)methyl)-5-(difluoromethyl)-6-fluoro-1H-indazol-4-yl)imidazo[1,2-a]pyrazin-2-yl)-2-fluorocyclopropane-1-carboxamide], the half-inhibitory concentration (IC50) was less than 100 nM.

Regarding `CC(C)Nc1c(F)c(Cl)c(-c2cn3cc(NC(=O)C4(N)CC4)nc3cn2)c2cn[nH]c12` [Example 78, 1-amino-N-(6-(5-chloro-6-fluoro-7-(isopropylamino)-1H-indazol-4-yl)imidazo[1,2-a]pyrazin-2-yl)cyclopropane-1-carboxamide], the concentration for half-maximal inhibition (IC50) was less than 100 nM.

Turning to `CC(C)Nc1c(F)c(Cl)c(-c2cn3cc(NC(=O)[C@H](C)N)nc3cn2)c2cn[nH]c12` [Example 79, (S)-2-amino-N-(6-(5-chloro-6-fluoro-7-(isopropylamino)-1H-indazol-4-yl)imidazo[1,2-a]pyrazin-2-yl)propanamide], the IC50 is less than 100 nM.

Regarding `CC(C)Nc1c(F)c(Cl)c(-c2cn3cc(NC(=O)CN)nc3cn2)c2cn[nH]c12` [Example 80, 2-amino-N-(6-(5-chloro-6-fluoro-7-(isopropylamino)-1H-indazol-4-yl)imidazo[1,2-a]pyrazin-2-yl)acetamide], the half-inhibitory concentration (IC50) is less than 100 nM.

As for `CC(C)Nc1c(F)c(Cl)c(-c2cn3cc(NC(=O)C(C)C)nc3cn2)c2cn[nH]c12` [Example 81, N-(6-(5-chloro-6-fluoro-7-(isopropylamino)-1H-indazol-4-yl)imidazo[1,2-a]pyrazin-2-yl)isobutyramide], the IC50 is less than 100 nM.
